Patent US3997517A, “Cyclic somatostatin disulfide analogues” (American Home Products Corporation, priority 1976, dated 1976)

What was measured:
Format in all cases: in vivo
blood serum glucagon = assay: Blood serum glucagon in Nembutal-treated rats, radioimmunoassay; settings: Nembutal 50 mg/kg i.p., blood sampled 15 min later
Description: (§1) The in vivo activity of the cyclic somatostatin disulfide analogues of this invention was established with cyclic somatostatin disulfide as a representative member of the family of compounds by comparing the blood serum growth hormone, glucagon and insulin concentrations found in rats grouped for control, somatostatin and cyclic somatostatin disulfide comparison. The rats, weighing between 200 and 250 grams were treated with Nembutal, 50 milligrams per kilogram intraperitoneally. After five minutes the somatostatin, control and cyclic somatostatin disulfide administrations were made subcutaneously. The rats blood was sampled fifteen minutes later and the growth hormone, glucagon and insulin levels were determined by radioimmunoassay.

blood serum insulin = assay: Blood serum insulin in Nembutal-treated rats, radioimmunoassay; settings: Nembutal 50 mg/kg i.p., blood sampled 15 min later
Description: as §1

[1] = system: blood serum growth hormone; assay: Blood serum growth hormone in Nembutal-treated rats, radioimmunoassay; settings: Nembutal 50 mg/kg i.p., blood sampled 15 min later, control 291±47, *p < 0.01
Description: as §1

| SMILES | Glucagon (blood serum glucagon; dose 3000 μg/kg subcutaneously, control 33±2) [pg/mL] | Insulin (blood serum insulin; dose 3000 μg/kg subcutaneously, control 272±39) [µU/mL] | GH ([1]; dose 3000 μg/kg subcutaneously) [ng/mL] | Glucagon (blood serum glucagon; dose 200 μg/kg subcutaneously, control 33±2, *p < 0.01) [pg/mL] | Insulin (blood serum insulin; dose 200 μg/kg subcutaneously, control 272±39, +p < 0.05) [µU/mL] | GH ([1]; dose 200 μg/kg subcutaneously) [ng/mL] |
| --- | --- | --- | --- | --- | --- | --- |
| C[C@@H]1NC(=O)[C@@H]2CSSC[C@H](NC(=O)CNC1=O)C(=O)N[C@@H](CCCCN)C(=O)N[C@@H](CC(N)=O)C(=O)N[C@@H](Cc1ccccc1)C(=O)N[C@@H](Cc1ccccc1)C(=O)N[C@@H](Cc1c[nH]c3ccccc13)C(=O)N[C@@H](CCCCN)C(=O)N[C@@H]([C@@H](C)O)C(=O)N[C@@H](Cc1ccccc1)C(=O)N[C@@H]([C@@H](C)O)C(=O)N[C@@H](CO)C(=O)N2 [Example IV, Cyclo-L-cysteinyl-L-alanyl-glycyl-L-cysteinyl-L-lysyl-L-asparaginyl-L-phenyl-alanyl-L-phenylalanyl-L-tryptophyl-L-lysyl-L-threonyl-L-phenylalanyl-L-threonyl-L-serine (1-4 disulfide)] | 29.7 ± 4 | 308 ± 30 | 40 ± 4 |  |  |  |
| C[C@H](N)C(=O)NCC(=O)N[C@H]1CSSC[C@@H](C(=O)O)NC(=O)[C@H](CO)NC(=O)[C@H]([C@@H](C)O)NC(=O)[C@H](Cc2ccccc2)NC(=O)[C@H]([C@@H](C)O)NC(=O)[C@H](CCCCN)NC(=O)[C@H](Cc2c[nH]c3ccccc23)NC(=O)[C@H](Cc2ccccc2)NC(=O)[C@H](Cc2ccccc2)NC(=O)[C@H](CC(N)=O)NC(=O)[C@H](CCCCN)NC1=O [Somatostatin, somatostatin] |  |  |  | 17 ± 2 | 161 ± 21 | 40 ± 4 |
